The record followed here is the NIST ThermoML archive (doi:10.1016/j.fluid.2009.09.019).

SMILES strings stand for the structures. Numbers after ± are expanded uncertainties.

Experiment in one data set: not given
The note with it: 293.2 K; 101.33 kPa; Liquid; Vibrating tube method.
A word on the mass density: it is mass per unit of volume. Turning to `C1CCCCC1` [cyclohexane], the mass density is given as 778.12 ± 0.61 kg/m3.
For the compound `CCCCCCC` [heptane], the mass density is listed as 684.1 ± 0.25 kg/m3.
Regarding `CCCCCC` [hexane], the mass density is recorded as 660.1 ± 0.25 kg/m3.
The same measure, in the same setting: next, `O=C1CCCO1` [γ-butyrolactone]: 1128.7 ± 1.1 kg/m3.

Another data set can be described thus: refractive index (Na D-line) (dimensionless). The note with it: 293.2 K; 101.33 kPa; Liquid; Standard Abbe refractometry.
As a reminder, the refractive index is a measure of how strongly the sample bends light. With `C1CCCCC1` [cyclohexane], the refractive index was 1.4263 ± 0.0005.
Turning to `CCCCCCC` [heptane], the refractive index amounted to 1.3873 ± 0.0004.
On the same count and under the same terms, next, `CCCCCC` [hexane]: 1.375 ± 0.0004; `Cc1ccccc1` [toluene]: 1.4967 ± 0.0004.
For `O=C1CCCO1` [γ-butyrolactone], the refractive index came out at 1.4344 ± 0.0005.
